# Test results from patent publication US20050244490A1, “Dosing methods for beta-D-2',3'-dideoxy-2',3'-didehydro-5-fluorocytidine antiviral therapy” (priority 2003, published 2005).
# Like-named read-outs stand apart in the source and are kept apart here.
# What was measured:
# wild type HIV-RT = target: T1, wild type HIV-RT (Human immunodeficiency virus type 1 group M subtype B, UniProt P04585); experiment: Ki / Km for wild type HIV-RT; format: biochemical, HIV-1
# T1 construct: The Ki value for β-D-D4FC-TP for wild type HIV-RT
# M184V mutant RT = M184V mutant RT (Human immunodeficiency virus type 1 group M subtype B, UniProt P04585, M771V); experiment: biochemical; format: biochemical, HIV-1
# HIV viral load = settings: cited from earlier work
# HepG2 cells = experiment: Mitochondrial toxicity testing (mitDNA, rRNA, lactic acid); format: cell-based; settings: 14 days; for % Change in Lactic Acid: normalized for cytotoxicity
# Description: HepG2 cells were incubated for 14 days with the active agent. and mitDNA and rRNA levels were determined by quantitative real-time PCR. The results are tabulated in […]
# DNA Pol γ = target: T2, DNA Pol γ (Homo sapiens, UniProt P54098); experiment: Inhibition of pure DNA polymerase γ by nucleoside triphosphates; format: biochemical; settings: tritiated dCTP incorporation
# T2 sequence (P54098 1-1239): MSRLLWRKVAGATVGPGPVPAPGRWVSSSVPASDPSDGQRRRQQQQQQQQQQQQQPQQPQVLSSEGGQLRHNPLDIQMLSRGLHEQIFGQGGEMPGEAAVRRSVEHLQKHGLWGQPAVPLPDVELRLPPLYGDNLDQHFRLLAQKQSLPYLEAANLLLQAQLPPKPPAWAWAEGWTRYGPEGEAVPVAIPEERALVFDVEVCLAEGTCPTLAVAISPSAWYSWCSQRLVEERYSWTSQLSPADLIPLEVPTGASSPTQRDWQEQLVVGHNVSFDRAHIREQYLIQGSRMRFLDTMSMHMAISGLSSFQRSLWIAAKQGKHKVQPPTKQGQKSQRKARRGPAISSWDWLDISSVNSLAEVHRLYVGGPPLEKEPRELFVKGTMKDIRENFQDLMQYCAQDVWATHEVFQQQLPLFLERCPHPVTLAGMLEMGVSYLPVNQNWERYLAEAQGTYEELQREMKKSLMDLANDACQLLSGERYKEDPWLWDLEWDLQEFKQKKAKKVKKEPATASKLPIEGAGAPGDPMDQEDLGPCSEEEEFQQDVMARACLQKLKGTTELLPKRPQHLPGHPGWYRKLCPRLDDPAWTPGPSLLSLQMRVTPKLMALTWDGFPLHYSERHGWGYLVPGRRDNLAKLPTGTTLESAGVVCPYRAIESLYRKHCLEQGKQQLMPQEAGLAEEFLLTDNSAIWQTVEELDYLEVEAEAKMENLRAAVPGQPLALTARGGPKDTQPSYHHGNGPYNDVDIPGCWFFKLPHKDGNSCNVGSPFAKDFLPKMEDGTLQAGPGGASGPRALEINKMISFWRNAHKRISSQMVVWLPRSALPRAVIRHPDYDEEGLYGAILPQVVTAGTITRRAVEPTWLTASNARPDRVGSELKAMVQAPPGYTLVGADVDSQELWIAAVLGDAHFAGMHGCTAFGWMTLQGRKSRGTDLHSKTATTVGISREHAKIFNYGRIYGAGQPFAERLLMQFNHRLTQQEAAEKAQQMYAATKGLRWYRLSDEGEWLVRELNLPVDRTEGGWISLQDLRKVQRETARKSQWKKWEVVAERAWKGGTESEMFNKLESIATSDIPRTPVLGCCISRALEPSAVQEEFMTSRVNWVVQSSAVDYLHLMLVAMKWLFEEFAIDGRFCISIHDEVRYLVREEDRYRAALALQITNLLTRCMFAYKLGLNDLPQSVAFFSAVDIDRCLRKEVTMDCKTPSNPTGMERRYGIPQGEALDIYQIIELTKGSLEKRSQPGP
# Description: (§1) Triphosphates of nucleosides were tested against pure polymerases using tritiated dCTP incorporation.
# HIV RT = target: T3, HIV RT (Human immunodeficiency virus type 1 group M subtype B, UniProt P04585); experiment: Inhibition of purified HIV-1 reverse transcriptase by nucleoside triphosphates (tritiated dCTP incorporation); format: biochemical; settings: pure polymerase, tritiated dCTP incorporation; read-out: IC50
# T3 construct: purified HIV-1 reverse transcriptase (RT)
# Description: An assay was performed to determine the ability of β-D-D4FC-triphosphate to terminate polymerization catalyzed by purified HIV-1 reverse transcriptase (RT). […] The target concentration is that concentration where most mutant variants tested are suppressed by 90% or more. The concentration of 5 μM is the target plasma concentration as most, mutant variants tested were suppressed ≧90% in vitro.
# as §1
# DNA Pol β = DNA Pol β (Homo sapiens, UniProt P06746); experiment: Inhibition of pure DNA polymerase β by nucleoside triphosphates; format: biochemical; settings: tritiated dCTP incorporation
# Description: as §1
# clinical [1] = settings: male, human, in vivo
# Description: Total of 18 HIV-1 infected males, aged 18-55 years, enrolled, 6 per treatment cohort.
# In Cohort 3, subjects received either 100 mg, or 200 mg, or placebo.
# The data was analyzed using non-compartmental and two-compartmental models.
# HIV RNA levels were also determined using quantitative real-time RT-PCR.
# Plasma HIV-1 RNA levels were measured by quantitative reverse transcriptase-polymerase chain reaction (Q-RT-PCR) essentially as described by Stuyver, L. J. et al., “Antiviral activity and cellular toxicity of modified 2′,3′-dideoxy-2′,3′-didehydrocytidine analogues” Antimicrob Agents Chemother.
# [2] = human, in vivo
# clinical [3] = settings: in vivo
# [4] = system: AZT/3TC-resistant HIV-1 recombinant viruses; experiment: microbe, parasite or virus in culture; format: cell-based; settings: Human immunodeficiency virus 1, read-out: Average IC90 for AZT/3TC-R virus
# Description: A panel of 22 viruses was constructed in the HXB2 background using the Protease and RT sequences from clinical isolates to determine Virco Profiling against recombinant clinical isolates (see FIGS. 7a and 7b). Viruses contained 2 to 17 mutations in RT frequently associated with nucleoside resistance, including: M184V, M41L, D67N, T215Y. IC50 values were determined using a high through-put reporter virus assay.
smiles,measurement,setting,value
Nc1ccn([C@H]2C[C@H](O)[C@@H](COP(=O)(O)OP(=O)(O)OP(=O)(O)O)O2)c(=O)n1 [dC-TP],Km,"wild type HIV-RT; Km for dC-TP (substrate), read-out: Km WT",7 µM
same,Km,M184V mutant RT; Km for dC-TP (substrate),9 µM
Nc1nc(=O)n([C@H]2C=C[C@@H](CO)O2)cc1F [L-D4FC],Viral Load Decline (log),"HIV viral load; 50 mg QD, duration of dosing 21, add-on study in experienced patients, mean of 7 of 18 patients",−1.69 log
same,% Change in mitDNA,HepG2 cells; 1 μM,−15%
same,% Change in rRNA,HepG2 cells; 1 μM,0%
same,% Change in Lactic Acid,HepG2 cells; 1 μM,+25%
same,% Change in mitDNA,HepG2 cells; 10 μM,−74.2%
same,% Change in rRNA,HepG2 cells; 10 μM,−75.5%
same,% Change in Lactic Acid,HepG2 cells; 10 μM,+147%
"Nc1ccn([C@H]2CC[C@@H](CO)O2)c(=O)n1 [ddC, 2′,3′-dideoxycytidine]",% Change in mitDNA,HepG2 cells; 1 μM,−99.7%
same,% Change in rRNA,HepG2 cells; 1 μM,−65.4%
same,% Change in Lactic Acid,HepG2 cells; 1 μM,+390%
same,% Change in mitDNA,HepG2 cells; 10 μM,−99.7%
same,% Change in rRNA,HepG2 cells; 10 μM,−73.6%
same,% Change in Lactic Acid,HepG2 cells; 10 μM,+492%
Nc1ccn([C@@H]2CS[C@H](COP(=O)(O)OP(=O)(O)OP(=O)(O)O)O2)c(=O)n1 [3TC-TP],IC50,DNA Pol γ,43100 nM
same,IC50,HIV RT,570 nM
same,Ki,wild type HIV-RT; read-out: Ki WT,950 nM
same,Ki,M184V mutant RT; read-out: Ki M184V,85000 nM
same,IC50,DNA Pol β,10300 nM
"Nc1nc(=O)[nH]cc1F [5FC, 5-fluorocytosine]",AUC,clinical [1]; 10 mg,0.39 ± 0.26 µM·h
same,AUC(0-τ),clinical [1]; 10 mg,136 ± 14 ng·h/mL
same,AUC(0-∞),clinical [1]; 10 mg,149 ng·h/mL
same,CLr,clinical [1]; 10 mg,1.39 L/h
same,CLtot/F,clinical [1]; 10 mg,67 957 mL/h
same,T ½,clinical [1]; 10 mg,6.4 ± 4.2 h
same,Tmax,clinical [1]; 10 mg,1.0 ± 0.3 h
same,t1/2 λz,clinical [1]; 10 mg,2.41 h
same,tmax,clinical [1]; 10 mg,1.08 h
same,AUC,clinical [1]; 25 mg,1.52 ± 0.87 µM·h
same,AUC(0-τ),clinical [1]; 25 mg,234 ng·h/mL
same,AUC(0-∞),clinical [1]; 25 mg,250 ng·h/mL
same,CLr,clinical [1]; 25 mg,1.27 L/h
same,CLtot/F,clinical [1]; 25 mg,115 262 mL/h
same,T ½,clinical [1]; 25 mg,9.5 ± 5.2 h
same,Tmax,clinical [1]; 25 mg,1.8 ± 0.9 h
same,t1/2 λz,clinical [1]; 25 mg,4.60 h
same,tmax,clinical [1]; 25 mg,1.33 h
same,AUC,clinical [1]; 100 mg,1.93 ± 0.68 µM·h
same,AUC(0-τ),clinical [1]; 100 mg,309 ng·h/mL
same,AUC(0-∞),clinical [1]; 100 mg,340 ng·h/mL
same,CLr,clinical [1]; 100 mg,10.26 L/h
same,CLtot/F,clinical [1]; 100 mg,307 932 mL/h
same,T ½,clinical [1]; 100 mg,18.6 ± 10.1 h
same,Tmax,clinical [1]; 100 mg,3.7 ± 0.8 h
same,t1/2 λz,clinical [1]; 100 mg,8.50 h
same,tmax,clinical [1]; 100 mg,3.67 h
same,AUC,clinical [1]; 200 mg,14.43 ± 13.12 µM·h
same,AUC(0-τ),clinical [1]; 200 mg,"1,665 ng · h/mL"
same,AUC(0-∞),clinical [1]; 200 mg,"1,887 ng · h/mL"
same,CLr,clinical [1]; 200 mg,4.60 L/h
same,CLtot/F,clinical [1]; 200 mg,169 692 mL/h
same,T ½,clinical [1]; 200 mg,11.2 ± 7.1 h
same,Tmax,clinical [1]; 200 mg,3.3 ± 3.2 h
same,t1/2 λz,clinical [1]; 200 mg,10.48 h
same,tmax,clinical [1]; 200 mg,3.33 h
Nc1ccn([C@H]2CC[C@@H](COP(=O)(O)OP(=O)(O)OP(=O)(O)O)O2)c(=O)n1 [ddC-TP],IC50,DNA Pol γ,70 nM
same,IC50,DNA Pol β,250 nM
"Nc1nc(NC2CC2)c2ncn([C@H]3C=C[C@@H](CO)C3)c2n1 [ABC, (1S,4R)-4-[2-amino-6-cyclopropyl-amino)-9H-purin-9-yl]-2-cyclopentene-1-methanol succinate]",Viral Load Decline (log),"HIV viral load; 600 mg BD, duration of dosing 7",−1.00 log
"Nc1ccn([C@@H]2CS[C@H](CO)O2)c(=O)n1 [3TC, β-L-2′,3′-dideoxy-3′-thiacytidine]",% Change in mitDNA,HepG2 cells; 1 μM,0%
same,% Change in rRNA,HepG2 cells; 1 μM,−0.3%
same,% Change in Lactic Acid,HepG2 cells; 1 μM,+23%
same,% Change in mitDNA,HepG2 cells; 10 μM,−9%
same,% Change in rRNA,HepG2 cells; 10 μM,−0%
same,% Change in Lactic Acid,HepG2 cells; 10 μM,+5%
same,Intracellular [Nuc-PPP] in patients,[2],6 to 10 µM
same,Cmax,clinical [3],6.6 µM
same,IC90,[4],> 93000 nM
